Data on 41 compounds can be found in PubChem BioAssay (NCI).

Structures are written as SMILES. Where “and” joins values, the source holds several entries; their conditions need not be identical. Identical values can stand only once.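 Dose response: 5 concentrations. Exposure: 48 h. Format: 96-well plates. Endpoint: linear interpolation; highest concentration if not reached. Here, GI50 denotes the concentration required for 50% inhibition of growth. Definition used: TGI = concentration required for complete inhibition of growth.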

This experiment has as its system MDA-MB-468 breast. Put plainly: NCI-60 cell line screen, 48 h.
Turning to `COc1cc(NC(C)CCCN)c2ncccc2c1Sc1ccc(Cl)cc1` (configuration not stated), the GI50 is 1700 nM and the TGI was found to be 3.11 µM.
The matching figures for `CNC(=O)c1cc2c(Oc3ccc(NC(=S)NC(=O)Cc4ccccc4)cc3F)ccnc2cc1OC`: above 29900 nM and above 100 µM.
For `CCN1C(=O)N(CC)C2C1NN=c1s/c(=C\c3cccc([N+](=O)[O-])c3)c(=O)n12` (configuration not stated), in that order: 375 nM and above 100 µM.
The matching figures for `COc1ccc(C(=O)OC2C(OC3C(O)COC(O[C@H]4C[C@H]5[C@@H]6CC=C7C[C@@H](O)CC[C@]7(C)[C@H]6CC[C@]5(C)[C@H]4[C@H](C)C(=O)CCC(C)C)C3OC(C)=O)OCC(O)C2O)cc1` (some centres not stated): 6.66 nM and 1.53 µM.
Turning to `CC1(C)CC(=O)c2c(ccc(C(=O)C[C@@H](N)CO)c2N)O1`, the GI50 is 561 nM and the TGI came out at 6.88 µM.
The matching figures for `Brc1ccc2[nH]cc(-c3nn4cc(-c5nccs5)nc4s3)c2c1`: 3260 nM and 18.3 µM.
For the compound `Cc1ncc(-c2ccnc(Nc3ccc(S(C)(=O)=O)cc3)n2)n1C(C)C`, the GI50 was 1120 nM and the TGI came to 2.93 µM.
For `COc1ccc2[nH]c(O)c(/C=c3/ccc4c(c3)N=C(c3ccc(F)cc3)N=4)c2c1`, in that order: 4140 nM and 22.3 µM.
For `COc1ccc(/C=N\NC(=O)c2ccc3nc(-c4ccc(Br)cc4)[nH]c3c2)cc1`, in that order: 2750 nM and 5.97 µM.
In the case of `Cc1cc2c(cc1C)[n+](Cc1ccc3ccccc3n1)cn2Cc1ccc2ccccc2n1`, the GI50 was 444 nM and the TGI came out at 1.95 µM.
For `CN(C)c1ccc(/C=N/NC(=O)c2cccc3ccccc23)c(Cl)c1`, in that order: 311 nM and 2.57 µM.
The matching figures for `COC(=O)[C@@H](OC)[C@@H]1Cc2cc3cc(OC4CC(OC5CC(O)C(O)C(C)O5)C(O)C(C)O4)c(C)c(O)c3c(O)c2C(=O)[C@H]1OC1CC(OC2CC(OC3CC(C)(O)C(O)C(C)O3)C(O)C(C)O2)C(O)C(C)O1` (some centres not stated): 28.3 nM and 0.0713 µM.
The matching figures for `CC/C=C\C[C@H](O)C/C=C1/C(=O)C=C[C@@H]1C/C=C\CCCC(=O)NC`: 940 nM and 2.51 µM.
Regarding `COc1ccc2nccc(/C=C/c3ccnc4ccc(OC)cc34)c2c1`, the GI50 was above 100000 nM and the TGI was above 100 µM.
The matching figures for `Cn1c2ccccc2c2nnc(NNCc3ccccn3)nc21`: 268 nM and 1.16 µM.
The matching figures for `Clc1ccc(N2CCC(N3CCCC3)CC2)cc1-c1nc2ccccc2[nH]1`: 12100 nM and 26.3 µM.
Take `CC(=O)/C(=C\c1c(-c2ccccc2)[nH]c2ccccc12)S(=O)(=O)c1ccccc1`: the GI50 is 987 nM and the TGI turned out to be 14.8 µM.
The matching figures for `CNCCCn1c2c(c3ccc(F)cc3c1=O)C(=O)c1cc(OC)cnc1-2`: 220 nM and 0.66 µM.
On to `Oc1c(CNCCNCc2cc(Cl)cc(Cc3ccccc3)c2O)cc(Cl)cc1Cc1ccccc1`, for which the GI50 was 307 nM and the TGI worked out at 4.43 µM.
For the compound `CN(C)c1ccc(C(=C2C=CC(=[N+](C)C)C=C2)c2ccccc2Cl)cc1`, the GI50 is 220 nM and the TGI was found to be 0.655 µM.
For `COc1cc(C2C3=C(COC3=O)Nc3cc4c(cc32)OCO4)cc2c1OCO2` (configuration not stated), in that order: 55.9 nM and 0.242 µM.
For `CCN(Cc1cccc(F)c1F)c1ccc(CO)c(Cl)c1`, in that order: below 12.5 nM and 0.035 µM.
The matching figures for `COc1ccc(Oc2cc(NCCC(F)(F)F)c3ncc(-c4ccc(C(=O)NC5CC5)c(C)c4)n3n2)c(F)c1F`: 3650 nM and above 100 µM.
`CSc1nc(N)c2c(n1)NC(c1ccccc1)C1CCc3ccccc3C1=N2` (configuration not stated): the GI50 was 84400 nM and the TGI is above 100 µM.
The matching figures for `CCCCCSC1C2C(=O)C(Br)=CC13CCNc1c(O)c4c5c(c13)=[N+]2CCC=5C=N4` (configuration not stated): 390 nM and 1.09 µM.
The matching figures for `COC(=O)/C(=C\c1c(-c2ccccc2)[nH]c2ccccc12)S(C)(=O)=O`: 5400 nM and 84.8 µM.
On to `O=C(Nc1cccc(-n2cc(-c3ccncc3)c(-c3ccc(O)c(Cl)c3)n2)c1)c1ccc(Cl)c(Cl)c1`, for which the GI50 was 16200 nM and the TGI is above 100 µM.
Consider `COc1ccc(/C(=N/O)c2cc(OC)c(OC)c(OC)c2)c(OC)c1N`, for which the GI50 is 3540 nM and the TGI was above 100 µM.
In the case of `O=C(c1ccccc1O)c1[nH]c(Cl)c(Cl)c1-n1c(C(=O)c2ccccc2O)cc(Cl)c1Cl`, the GI50 was 436 nM and 339 nM; the TGI was 6.53 µM and 10.4 µM.
With `Cc1cc(O)cc(C)c1/C=C/c1cncc(C(=O)OC(C)(C)C)c1`, the GI50 is 8410 nM and the TGI was above 25 µM.
The matching figures for `Oc1ccccc1C=Nc1ccccc1N=Cc1ccccc1O.[Cu+2]`: 1730 nM and 13.5 µM.
The matching figures for `CC1(C)N=C(N)N=C(N)N1c1ccc(Cl)c(Cl)c1`: 337 nM and above 57.5 µM.
The matching figures for `COc1ccc(-c2nc(-c3nc4ccc(C(F)(F)F)cc4[nH]3)c3ccccn23)cc1`: 13400 nM and above 100 µM.
As to `CN(C)CCOc1ccc(-c2cc(-c3ccc4c(c3)CC/C4=N\O)c(-c3ccncc3)o2)cc1`, the GI50 is 2800 nM and the TGI worked out at 6.17 µM.
Regarding `C[C@]12CC[C@@H]3c4ccc(O)cc4CC[C@H]3[C@@H]1CC[C@@H]2NS(=O)(=O)c1ccc2ccccc2c1`, the GI50 is 3620 nM and the TGI was determined as 15.2 µM.
For `O=Nc1c(O)c2ccccc2c2ccccc12`, in that order: 1810 nM and 3.73 µM.
For `CN1CCN(c2ccc(C(=O)Nc3cccc(C#Cc4cccc5[nH]nc(N)c45)c3)cc2C(F)(F)F)CC1`, in that order: 821 nM and 2.39 µM.
The matching figures for `CC(=O)c1ccc2c(c1)N(CCCN(C)C)c1ccccc1S2`: 10400 nM and 22.8 µM.
`O=C(COc1ccc(-c2nc3cc(Cl)c(Cl)cc3[nH]2)cc1)N=Nc1c(O)[nH]c2ccccc12`: the GI50 was 2600 nM and the TGI came to 6.23 µM.
For `FC(F)(F)c1[nH]ncc1-c1nc2ccc3[nH]ncc3c2c2c1CCCC2`, in that order: 1860 nM and 4.67 µM.
`N=C(N)SCc1ccc([N+](=O)[O-])cc1[N+](=O)[O-]`: the GI50 was 2520 nM and the TGI amounted to 8.55 µM.
